These results are taken from EP2289528A1, “Novel nutraceutical compositions containing black pepper or its constituents improving mental performance” (DSM IP Assets B.V., priority 2009, dated 2011).

Assay [1] deals with T1, human glycine transporter 1b cDNA (GlyT1) (Homo sapiens, UniProt P48067).
T1 construct: expressed in transfected cells
T1 sequence (P48067 1-652 isoform P48067-3): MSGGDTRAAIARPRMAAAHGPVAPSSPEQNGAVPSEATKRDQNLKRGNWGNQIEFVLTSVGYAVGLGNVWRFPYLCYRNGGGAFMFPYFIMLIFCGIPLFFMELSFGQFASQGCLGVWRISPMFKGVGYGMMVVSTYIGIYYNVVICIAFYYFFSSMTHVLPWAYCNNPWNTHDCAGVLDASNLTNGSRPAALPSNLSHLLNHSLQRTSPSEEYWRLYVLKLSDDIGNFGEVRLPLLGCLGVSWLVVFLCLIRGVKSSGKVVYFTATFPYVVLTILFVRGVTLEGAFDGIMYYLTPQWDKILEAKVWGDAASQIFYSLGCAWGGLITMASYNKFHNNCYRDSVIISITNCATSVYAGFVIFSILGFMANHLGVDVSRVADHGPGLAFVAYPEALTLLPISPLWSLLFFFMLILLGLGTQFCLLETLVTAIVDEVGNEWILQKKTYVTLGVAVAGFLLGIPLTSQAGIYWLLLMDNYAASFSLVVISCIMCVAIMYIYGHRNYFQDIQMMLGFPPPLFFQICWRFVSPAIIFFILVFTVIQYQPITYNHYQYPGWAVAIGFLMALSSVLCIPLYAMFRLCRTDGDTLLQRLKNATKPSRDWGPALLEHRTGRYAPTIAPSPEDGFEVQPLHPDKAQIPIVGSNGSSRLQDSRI
Description: Inhibition of glycine transporter 1 in a cellular assay ([3H] glycine uptake into CHO cells). In kind it is cell-based. Here is the method: Cells were harvested by trypsinisation one day prior to the assay and were seeded in the above mentioned medium. Immediately prior to the assay, the medium was replaced by uptake buffer containing 150 mM NaCl, 1 mM CaCl2, 2.5 mM KCl, 2.5 mM MgCl2, 10 mM Glucose and 10 mM N-2-hydroxyethylpiperazine-N'-2-ethanesulfonic acid ("Hepes" buffer). […] Louis, USA) were used as known inhibitors of GlyT1. […] Data is shown as mean ± s.e.m., where the IC50 is stated as µM for pure compounds and as µg/mLfor extracts.

The next assay concerns pMAPK. Description: Hippocampal slice cultures, immunohistochemistry of synaptic marker pMAPK. Also: key: ++++ shows a qualitative maximal activation; -- shows a reduced activation; ++ signifies a half-maximum activation; ± demonstrated no change in immunoreactivity. In kind it is cell-based, Wistar rats. To be noted: relative activation vs sister cultures treated with buffer; 15 min treatment after 48 h in culture. As to the method:
(§1) Seven-day-old Wistar rats were decapitated using a guillotine. […] Transversal hippocampal slices (400 µm) were prepared using a vibrating blade microtome (VT1200S; Leica Microsystems (Schweiz) AG, Heerbrugg, Switzerland) in the same buffer. Hippocampal slices were individually placed on a membrane insert (Millicell Culture Plate Inserts, 0.4 µm) and cultivated at 35 °C, 5% CO2, 95% humidity in a medium containing a 1:1 mixture of BME and MEM (both from Invitrogen) containing 25% heat-inactivated horse serum, 1x GlutaMAX, 1x Penicillin/Streptomycin, 0.6% glucose and 1mM Kynurenic acid (Stoppini, Buchs and Muller (1991), J. Neurosci. Methods, 37(2), 173-82). After 48 h in culture, synaptic NMDA receptors were activated by addition of black pepper extract or its constituents for 15 min in 140 mM NaCl, 5 mM KCl, 1.3 mM CaCl2, 25 mM HEPES (pH 7.3), 33 mM D-glucose and 0.02 mM bicuculline methiodide. […] After the treatments, sections were washed and fixed for immunohistochemistry. Markers of enhanced synaptic activity, normally associated with long-term potentiation, representing an ex vivo model of learning and memory were quantitated (see Table 2, below). Table 2. […] The activation of any of these markers (or a combination thereof) is observed in classical LTP experiments. TABLE 2 […]

A further assay concerns pCREB. Description: Hippocampal slice cultures, immunohistochemistry of synaptic marker pCREB. Also: key: ++++ shows a qualitative maximal activation; -- shows a reduced activation; ++ signifies a half-maximum activation; ± demonstrated no change in immunoreactivity. It is filed as cell-based, Wistar rats. The conditions noted are these: relative activation vs sister cultures treated with buffer; 15 min treatment after 48 h in culture. Here is the method: as §1
The test system of a further assay is GluR1. In words: Hippocampal slice cultures, immunohistochemistry of synaptic marker GluR1. The conditions noted are these: relative activation vs sister cultures treated with buffer; 15 min treatment after 48 h in culture. In kind it is cell-based, Wistar rats. As to the method:
Seven-day-old Wistar rats were decapitated using a guillotine. […] Transversal hippocampal slices (400 µm) were prepared using a vibrating blade microtome (VT1200S; Leica Microsystems (Schweiz) AG, Heerbrugg, Switzerland) in the same buffer. Hippocampal slices were individually placed on a membrane insert (Millicell Culture Plate Inserts, 0.4 µm) and cultivated at 35 °C, 5% CO2, 95% humidity in a medium containing a 1:1 mixture of BME and MEM (both from Invitrogen) containing 25% heat-inactivated horse serum, 1x GlutaMAX, 1x Penicillin/Streptomycin, 0.6% glucose and 1mM Kynurenic acid (Stoppini, Buchs and Muller (1991), J. Neurosci. Methods, 37(2), 173-82). After 48 h in culture, synaptic NMDA receptors were activated by addition of black pepper extract or its constituents for 15 min in 140 mM NaCl, 5 mM KCl, 1.3 mM CaCl2, 25 mM HEPES (pH 7.3), 33 mM D-glucose and 0.02 mM bicuculline methiodide. […] After the treatments, sections were washed and fixed for immunohistochemistry. Markers of enhanced synaptic activity, normally associated with long-term potentiation, representing an ex vivo model of learning and memory were quantitated (see Table 2, below). Table 2. […] The activation of any of these markers (or a combination thereof) is observed in classical LTP experiments.

Where [2] appears, read: pure compounds, CHO cells expressing GlyT1, 60 nM [3H] glycine, 30 minutes at room temperature.

Read-outs that look alike come from different tables or passages of the source.

As to `O=C(/C=C/C=C/c1ccc2c(c1)OCO2)N1CCCCC1` [Piperine], the IC50 in assay [1] was determined as 48.7 µM. Also, in the assay with pMAPK, the pMAPK result was “±”. In addition, in the assay on pCREB, the pCREB result is recorded as “±”. In addition, in the assay with GluR1, the GluR1 is reported as 119-1742%.
Regarding `COc1cc(/C=C/C(=O)N2CCC=CC2=O)cc(OC)c1OC` [Piperlongumine], the “IC50 for tritiated glycine uptake” value in assay [1] (setting [2]) was “inactive”. Moreover, the pMAPK result in the assay on pMAPK is recorded as “±”. Besides, the pCREB result in the assay with pCREB is “±”. Also, the GluR1 in the assay with GluR1 is reported as 412-931%.
Regarding `CN(CC[C@@H](Oc1ccc(C(F)(F)F)cc1)c1ccccc1)CC(=O)O` [ORG24598, reference compound], the IC50 in assay [1] (read-out: IC50 for tritiated glycine uptake, pure compounds, CHO cells expressing GlyT1, 60 nM [3H] glycine, 30 minutes at room temperature) amounted to 0.02 µM.
With `CNCC(=O)O` [Sarcosine, reference compound], the pMAPK entry in the assay on pMAPK is “±”. Also, the pCREB entry in the assay on pCREB was “±”.
In the case of `NCC(=O)O` [Glycine, reference compound], the pMAPK entry in the assay on pMAPK is “++”. Moreover, the pCREB entry in the assay on pCREB is listed as “++”.
Consider `CC(C)CNC(=O)/C=C/C=C/c1ccc2c(c1)OCO2` [Piperlonguminine], for which the “IC50 for tritiated glycine uptake” value in assay [1] (setting [2]) is “inactive”.

Usually IC50 stands for the concentration that gives 50% inhibition.
